Here are results for 9 compounds from patent publication US4600689A, “Novel bilirubin oxidase, its production and use” (Takara Shuzo Co., Ltd., priority 1983, dated 1986).

For one test, the target named is T1, novel bilirubin oxidase M-1 of Trachyderma tsunodae K-2593 (Trachydermella tsunodae, UniProt O61263).
T1 sequence (O61263 22-521): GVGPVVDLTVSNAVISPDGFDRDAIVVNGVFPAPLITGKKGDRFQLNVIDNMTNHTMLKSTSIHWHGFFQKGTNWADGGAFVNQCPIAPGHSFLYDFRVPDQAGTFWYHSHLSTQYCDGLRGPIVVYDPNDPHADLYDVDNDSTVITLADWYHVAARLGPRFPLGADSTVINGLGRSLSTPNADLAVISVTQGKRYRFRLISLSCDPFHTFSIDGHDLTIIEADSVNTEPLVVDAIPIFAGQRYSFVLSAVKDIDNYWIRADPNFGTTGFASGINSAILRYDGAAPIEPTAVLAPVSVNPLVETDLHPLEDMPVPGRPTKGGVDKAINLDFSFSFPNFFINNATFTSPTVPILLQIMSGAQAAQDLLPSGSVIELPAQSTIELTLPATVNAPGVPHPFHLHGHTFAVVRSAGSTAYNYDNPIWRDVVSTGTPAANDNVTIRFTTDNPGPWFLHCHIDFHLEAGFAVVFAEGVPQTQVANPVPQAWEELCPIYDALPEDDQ
As to the kind of experiment: Effect of interfering agents on bilirubin oxidase activity (decrease in absorption at 460 nm of bilirubin). Type of test: biochemical. As to conditions: 10 min, pH 7, read-out: Percent interference (%).
Turning to `O=C(O)CN(CCN(CC(=O)O)CC(=O)O)CC(=O)O` [EDTA], the inhibition at 1000 µM was 59%. In the case of `O=C(O)CI` [Iodoacetic acid], the inhibition at 1000 µM came out at 10%. Same read-out and setting: with `N[C@@H](CCC(=O)N[C@@H](CS)C(=O)NCC(=O)O)C(=O)O` [Reduced glutathione] the figure was 38%; with `c1ccc(-c2ccccn2)nc1` [α,α'-Dipyridyl], 30%.

The same test, now with this note: 10 min, pH 7; additive 1 mM; read-out: Percent interference (%).
Consider `O[C@H](CS)[C@H](O)CS` (racemic) [Dithiothreitol], for which the inhibition at 1000 µM is 86%. In the case of `OCCS` [2-Mercaptoethanol], the inhibition at 1000 µM turned out to be 31%.

For the compound `O=C1O[C@H]([C@@H](O)CO)C(O)=C1O` [L-ascorbic acid], the inhibition at 1000 µM turned out to be 100%.

For `N[C@@H](CS)C(=O)O` [L-cysteine], the inhibition at 1000 µM was 74%. On to `c1cnc2c(c1)ccc1cccnc12` [o-Phenanthroline], for which the inhibition at 1000 µM was determined as 34%.
